± gives the standard deviation of the averaged measurements.
Columns and labels:
Assay in all cases: level (log10 ratio to DMSO vehicle control); higher = higher biomarker level / cell amount than vehicle control
Conditions in all cases: in DMSO
[1] = compound: O=C(O)CCC(F)(F)C(F)(F)C(F)(F)C(F)(F)C(F)(F)F [2H,2H,3H,3H-Perfluorooctanoic acid]
Procedure: (§1)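 BioMAP Diversity Plus panel of 12 human primary cell co-culture systems (3C, 4H, LPS, SAg, BT, BF4T, BE3C, CASM3C, HDF3CGF, KF3CT, MyoF, Mphg). Compounds were added 1 h before stimulation and left for 24 h (MyoF 48 h; BT 72 h for soluble read-outs or 6 d for IgG). Biomarkers were read by ELISA, cytotoxicity by SRB, PBMC viability and proliferation by Alamar Blue. Each well value was divided by the mean of 8 DMSO control wells on the same plate and log10 transformed; duplicate blinded samples were tested at 4 concentrations.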

Hexafluoroglutaric acid = compound: O=C(O)C(F)(F)C(F)(F)C(F)(F)C(=O)O [Hexafluoroglutaric acid]
Procedure: as §1

Perfluorooctanamide = compound: NC(=O)C(F)(F)C(F)(F)C(F)(F)C(F)(F)C(F)(F)C(F)(F)C(F)(F)F [Perfluorooctanamide]
Procedure: as §1

1H,1H-Heptafluorobutanol = compound: OCC(F)(F)C(F)(F)C(F)(F)F [1H,1H-Heptafluorobutanol]
Procedure: as §1

[2] = compound: CC(C)(C)C(=O)CC(=O)C(F)(F)C(F)(F)C(F)(F)F [(Heptafluorobutanoyl)pivaloylmethane]
Procedure: as §1

[3] = compound: O=C(O)C(F)(F)C(F)(F)C(F)(F)C(F)(F)C(F)(F)C(F)(F)C(F)(F)C(F)(F)Cl [9-Chloro-perfluorononanoic acid]
Procedure: as §1

[4] = compound: C=CC(=O)OCCC(F)(F)C(F)(F)C(F)(F)C(F)(F)F [2-(Perfluorobutyl)ethyl acrylate]
Procedure: as §1

Row | Test System | level (log10) ([1]; 6700 nM) | level (log10) ([1]; 20000 nM) | level (log10) ([1]; 60000 nM) | level (log10) (Hexafluoroglutaric acid; 6700 nM) | level (log10) (Hexafluoroglutaric acid; 20000 nM) | level (log10) (Hexafluoroglutaric acid; 60000 nM) | level (log10) (Perfluorooctanamide; 6700 nM) | level (log10) (Perfluorooctanamide; 20000 nM) | level (log10) (Perfluorooctanamide; 60000 nM) | level (log10) (1H,1H-Heptafluorobutanol; 6700 nM) | level (log10) (1H,1H-Heptafluorobutanol; 20000 nM) | level (log10) (1H,1H-Heptafluorobutanol; 60000 nM) | level (log10) ([2]; 6700 nM) | level (log10) ([2]; 20000 nM) | level (log10) ([2]; 60000 nM) | level (log10) ([3]; 6700 nM) | level (log10) ([3]; 20000 nM) | level (log10) ([4]; 6700 nM) | level (log10) ([4]; 20000 nM) | level (log10) ([4]; 60000 nM)
1 | HDF3CGF:CD106/VCAM-1 | 0.046 ± 0.082 | 0.044 ± 0.088 | 0.0435 ± 0.071 | -0.045 ± 0.0071 | -0.0195 ± 0.071 | -0.05 ± 0.12 | -0.015 ± 0.0099 | 0.0005 ± 0.005 | -0.016 ± 0.0085 | -0.033 ± 0.048 | -0.003 ± 0.079 | -0.0055 ± 0.09 | 0.0085 ± 0.023 | 0.032 ± 0.0071 | -0.0925 ± 0.054 | -0.0005 ± 0.074 | -0.067 ± 0.096 | -0.068 ± 0.0028 | -0.203 ± 0.049 | -0.317 ± 0.041
2 | MyoF:bFGF | -0.013 ± 0.017 | -0.011 ± 0.0085 | -0.008 ± 0.021 | 0.01 ± 0.014 | 0.0105 ± 0.013 | 0.017 ± 0.0014 | -0.005 ± 0.0014 | -0.0055 ± 0.015 | 0.007 ± 0.0014 | -0.003 ± 0.0042 | 0.0045 ± 0.0078 | 0.01 ± 0.017 | 0.002 ± 0.0028 | 0.0065 ± 0.0035 | 0.021 ± 0.0071 | -0.003 ± 0.023 | 0.0085 ± 0.011 | -0.0035 ± 0.0021 | -0.003 ± 0.0042 | 0.02 ± 0.011
3 | CASM3C:CXCL9/MIG | -0.0185 ± 0.00071 | -0.0285 ± 0.0092 | 0.0045 ± 0.042 | -0.0195 ± 0.019 | -0.02 ± 0.0085 | 0.022 ± 0.033 | -0.0205 ± 0.037 | 0.0135 ± 0.0021 | 0.0365 ± 0.032 | 0.003 ± 0.0014 | -0.006 ± 0.013 | 0.015 ± 0.044 | -0.004 ± 0.0014 | -0.0085 ± 0.00071 | 0.006 ± 0.011 | -0.0355 ± 0.0035 | -0.0235 ± 0.013 | -0.0005 ± 0.012 | -0.025 ± 0.0071 | -0.121 ± 0.014
4 | CASM3C:IL-6 | -0.0035 ± 0.0064 | -0.008 ± 0.0057 | 0.0145 ± 0.05 | -0.0175 ± 0.0035 | -0.015 ± 0.021 | 0.022 ± 0.082 | 0.0435 ± 0.036 | -0.0225 ± 0.015 | 0.008 ± 0.023 | 0 ± 0.033 | -0.0125 ± 0.011 | 0.018 ± 0.042 | -0.0155 ± 0.0064 | -0.0375 ± 0.018 | -0.0145 ± 0.028 | -0.0115 ± 0.00071 | -0.0325 ± 0.019 | -0.023 ± 0.0014 | -0.0425 ± 0.0021 | -0.076 ± 0.034
5 | BE3C:PAI-I | -0.0035 ± 0.0064 | 0.027 ± 0.011 | 0.044 ± 0.0057 | -0.0205 ± 0.016 | -0.014 ± 0.027 | 0.002 ± 0.03 | -0.01 ± 0.016 | 0.016 ± 0.0085 | 0.022 ± 0.0057 | -0.0285 ± 0.0078 | -0.0185 ± 0.03 | -0.0115 ± 0.0035 | -0.028 ± 0.068 | -0.009 ± 0.083 | -0.0145 ± 0.1 | 0.0005 ± 0.0035 | -0.215 ± 0.017 | 0.0125 ± 0.033 | 0.038 ± 0.018 | 0.076 ± 0.021
6 | KF3CT:SRB | -0.006 ± 0.0014 | -0.0015 ± 0.005 | 0.006 ± 0.0085 | -0.0055 ± 0.0021 | -0.011 ± 0.0057 | 0.003 ± 0.018 | -0.0065 ± 0.005 | -0.0075 ± 0.0035 | 0 ± 0.0028 | 0.0015 ± 0.015 | 0.0005 ± 0.00071 | 0.0095 ± 0.0021 | -0.0055 ± 0.0021 | -0.003 ± 0.0071 | -0.0065 ± 0.005 | -0.0135 ± 0.0035 | -0.0145 ± 0.012 | -0.01 ± 0.0028 | -0.0095 ± 0.005 | -0.0205 ± 0.013
7 | MyoF:Collagen I | 0.013 ± 0.0014 | -0.0005 ± 0.0064 | 0.0055 ± 0.018 | -0.003 ± 0.013 | -0.0005 ± 0.016 | 0.011 ± 0.0014 | -0.007 ± 0.0099 | -0.0265 ± 0.015 | -0.0435 ± 0.0035 | -0.01 ± 0.024 | -0.0065 ± 0.022 | -0.0005 ± 0.013 | -0.0165 ± 0.011 | -0.007 ± 0.0099 | 0.0065 ± 0.013 | -0.0135 ± 0.005 | -0.29 ± 0.019 | 0.0105 ± 0.016 | 0.01 ± 0.03 | -0.002 ± 0.025
8 | HDF3CGF:TIMP-2 | -0.0325 ± 0.021 | -0.04 ± 0.023 | 0.005 ± 0.047 | -0.041 ± 0.0014 | 0.01 ± 0.0028 | -0.0345 ± 0.0021 | -0.0085 ± 0.005 | -0.035 ± 0.011 | -0.0145 ± 0.022 | -0.0055 ± 0.025 | 0.018 ± 0.033 | -0.029 ± 0.037 | -0.0005 ± 0.019 | -0.006 ± 0.013 | -0.019 ± 0.016 | -0.0645 ± 0.04 | -0.146 ± 0.029 | -0.0725 ± 0.057 | -0.0805 ± 0.047 | -0.0995 ± 0.035
9 | HDF3CGF:Collagen I | 0.0065 ± 0.079 | -0.004 ± 0.078 | 0.0195 ± 0.14 | -0.03 ± 0.014 | -0.0385 ± 0.0078 | 0.0105 ± 0.071 | -0.0135 ± 0.043 | -0.0555 ± 0.013 | 0.0095 ± 0.081 | -0.005 ± 0.016 | -0.0215 ± 0.0021 | 0.012 ± 0.017 | -0.0025 ± 0.029 | -0.044 ± 0.04 | 0.0405 ± 0.044 | -0.0595 ± 0.005 | -0.151 ± 0.0042 | -0.065 ± 0.02 | -0.0225 ± 0.042 | -0.0295 ± 0.054
10 | HDF3CGF:CXCL11/I-TAC | -0.0455 ± 0.12 | -0.084 ± 0.11 | -0.0825 ± 0.11 | 0.014 ± 0.0014 | -0.011 ± 0.072 | -0.0115 ± 0.061 | -0.006 ± 0.0099 | -0.0185 ± 0.016 | -0.016 ± 0.0057 | -0.0135 ± 0.022 | -0.0185 ± 0.011 | -0.031 ± 0.061 | 0.012 ± 0.014 | -0.0155 ± 0.005 | -0.06 ± 0.013 | -0.105 ± 0.029 | -0.217 ± 0.069 | -0.045 ± 0.062 | -0.124 ± 0.023 | -0.317 ± 0.087
11 | HDF3CGF:EGFR | -0.055 ± 0.025 | -0.0435 ± 0.037 | -0.0205 ± 0.03 | -0.021 ± 0.061 | -0.0285 ± 0.056 | -0.021 ± 0.072 | 0.008 ± 0.013 | 0.0125 ± 0.015 | 0.0375 ± 0.042 | -0.086 ± 0.031 | -0.0205 ± 0.081 | -0.039 ± 0.1 | 0.027 ± 0.016 | -0.102 ± 0.031 | 0.009 ± 0.055 | -0.135 ± 0.099 | -0.2 ± 0.054 | -0.002 ± 0.016 | -0.0165 ± 0.005 | -0.0055 ± 0.021
12 | CASM3C:M-CSF | -0.006 ± 0.0028 | -0.0035 ± 0.0064 | 0.0185 ± 0.06 | -0.0135 ± 0.022 | -0.0185 ± 0.033 | 0.018 ± 0.018 | -0.0055 ± 0.04 | 0.0035 ± 0.03 | 0.027 ± 0.048 | 0.006 ± 0.021 | 0.03 ± 0.041 | 0.038 ± 0.016 | 0.002 ± 0.017 | -0.0165 ± 0.013 | -0.016 ± 0.014 | -0.0235 ± 0.0035 | -0.0315 ± 0.011 | -0.0165 ± 0.019 | -0.0355 ± 0.022 | -0.021 ± 0.044
13 | CASM3C:CCL2/MCP-1 | -0.002 ± 0.014 | 0.002 ± 0.0042 | 0.013 ± 0.028 | -0.0115 ± 0.033 | -0.024 ± 0.025 | 0.0205 ± 0.039 | -0.013 ± 0.03 | -0.013 ± 0.014 | -0.014 ± 0.0099 | 0.006 ± 0.0099 | 0.006 ± 0.0057 | 0.0095 ± 0.026 | -0.008 ± 0.017 | -0.0025 ± 0.021 | -0.0075 ± 0.0092 | -0.0085 ± 0.011 | -0.011 ± 0.0028 | -0.001 ± 0.0099 | -0.0085 ± 0.0064 | -0.0035 ± 0.0064
14 | lMphg:CD69 | -0.032 ± 0.05 | -0.0325 ± 0.063 | -0.016 ± 0.031 | -0.037 ± 0.028 | -0.0325 ± 0.0021 | -0.0525 ± 0.015 | 0.0175 ± 0.018 | -0.005 ± 0.025 | -0.0825 ± 0.074 | -0.0555 ± 0.066 | -0.052 ± 0.098 | -0.0465 ± 0.066 | -0.0145 ± 0.0021 | -0.0025 ± 0.0078 | 0.051 ± 0.011 | -0.049 ± 0.024 | -0.053 ± 0.016 | -0.0065 ± 0.016 | -0.006 ± 0.011 | -0.024 ± 0.0057

Source: the supplement of paper PMC10331698
